{"source": "patent US20240050449A1", "about": "“Use of Acetyltanshinone IIA in Preparation of Medicament for Treating Lung Cancer and Medicament for Treating Lung Cancer” (UNIVERSITY OF MACAU, priority 2022, published 2024)", "format_in_all_cases": "cell-based", "key": {"H1975 cells [1]": {"system": "H1975 cells", "assay": "Colony formation (cloning experiment), H1975 cells", "conditions": "0.125 μM, 10 days", "experimental": "Cells were seeded at a density of 1×10^3 per well in 6-well plates and cultured for 24 h. The cells were treated with medicament or DMSO for 10 days, after which the cells were washed once with 1×PBS, fixed with 4% paraformaldehyde for 20 min, and stained with 0.1% crystal violet for 15 min. The stained cells in each well were imaged and the number of colonies in each well was quantified using ImageJ software."}, "A549 cells": {"system": "A549 cells", "assay": "Transwell Matrigel invasion assay", "experimental": "Cell migration and invasion assays were performed in a transwell chamber (Corning, #3422) with a pore size of 8 μm. Cells were treated with different concentrations of ATA and Erlotinib for 48 h, then harvested and resuspended in a serum-free medium. Cells (1×10^4) were added to the upper side of the transwell chamber and fresh medium containing 10% FBS was added to the lower side. Cells were allowed to migrate from the upper side to the lower side of the chamber at 37° C. for 24 h. Membranes from the cell chamber were fixed with 4% paraformaldehyde for 20 min. The cells remaining on the upper side of the membrane were gently removed with a cotton swab and stained with 1% crystal violet for 20 min to stain the cells migrating to the other side of the transwell chamber. The membrane was then cut and fixed on a glass slide. The migrated cells on each slide were imaged with a Leica M165-FC microscope. For the transwell invasion assay, a Matrigel solution (Corning, #356230) was diluted to one-thirtieth with serum-free medium and applied to the upper side of the precoated chamber for 2 h, after the Matrigel had solidified, the cells were added to the upper side of the transwell chamber. The following procedure is identical to the migration assay. Migrated and invaded cells were quantified using ImageJ software."}, "H1975 cells [2]": {"system": "H1975 cells", "assay": "MTT cell viability assay, H1975 cells", "experimental": "Cells were seeded at a density of 3×10^3 per well in 96-well plates, allowed to attach overnight, and treated with various concentrations of agent. After 72 h of treatment, 10 μL of MTT solution (5 mg/mL) was added to each well and cultured in the plate for 4 h. The crystallized formazan was dissolved in 100 μL of 10% (w/v) SDS and 0.01 mol/L HCl solution for 24 h, and then the value was read by spectrophotometry at 595 nm using a microplate reader."}, "EGFR": {"system": "EGFR", "assay": "Western blot, EGFR protein levels in drug-resistant NSCLC cells", "experimental": "Cells were washed once with PBS and frozen in RIPA lysis buffer containing protease and phosphatase inhibitors (Sigma-Aldrich) for 30 min. After sonication and centrifugation, the total protein concentration was determined by protein assay using Bio-Rad concentrated dye reagent (Bio-Rad). Equal amounts of protein ([…]) from each sample were separated by SDS-PAGE and electrotransferred to nitrocellulose membranes (GE Healthcare). Detection was performed on the membrane with a 1:1000 dilution of specific primary antibody followed by incubation with a 1:2000 dilution of the HRP conjugated secondary antibody. Finally, immunoreactivity is detected with a chemiluminescent substrate (Clarity Western ECL substrate; Bio-Rad). […] Aurora A (#ab13824) and PLK1 (#ab189139) antibodies were from Abcam."}, "A549 and H1650 cells": {"system": "A549 and H1650 cells", "assay": "Cell cycle analysis (PI staining, flow cytometer)", "conditions": "1 or 2 μM, 48 h", "experimental": "Cell cycle analysis was performed using standard flow cytometer protocols. Briefly, after ATA treatment, cells were harvested, washed with 1×PBS, and then fixed with 70% pre-chilled ethanol at 4° C. for 30 min. Fixed cells were washed twice with 1×PBS, resuspended in 0.5 mL of 1×PBS containing 50 μg/mL propidium iodide (PI) and 100 μg/mL RNase A (ribonuclease A) for 30 min at 37° C. in the dark. The cell cycle was then analyzed on a BD Accuri C6 flow cytometer (BD Biosciences, CA). Data from the flow cytometer were analyzed using FlowJo software (Tree Star)."}, "p70S6K": {"biological_target": "T1, p70S6K (Homo sapiens, UniProt P23443)", "T1 construct": "endogenous in cells; host or cells: A549, H358, H1975, H1650 for the Western blots", "T1 sequence (P23443 whole entry)": "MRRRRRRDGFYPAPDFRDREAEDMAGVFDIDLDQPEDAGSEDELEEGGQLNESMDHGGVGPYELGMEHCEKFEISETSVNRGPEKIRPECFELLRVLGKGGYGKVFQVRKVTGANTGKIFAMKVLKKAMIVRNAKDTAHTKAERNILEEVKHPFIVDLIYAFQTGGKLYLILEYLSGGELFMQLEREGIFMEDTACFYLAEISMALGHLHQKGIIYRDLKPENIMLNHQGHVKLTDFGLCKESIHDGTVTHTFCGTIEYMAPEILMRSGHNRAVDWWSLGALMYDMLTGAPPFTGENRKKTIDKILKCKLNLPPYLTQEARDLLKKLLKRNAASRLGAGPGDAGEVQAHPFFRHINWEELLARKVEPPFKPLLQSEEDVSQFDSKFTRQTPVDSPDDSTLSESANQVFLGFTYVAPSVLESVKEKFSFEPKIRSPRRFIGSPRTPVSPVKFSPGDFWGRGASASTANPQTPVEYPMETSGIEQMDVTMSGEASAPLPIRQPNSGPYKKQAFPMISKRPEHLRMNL", "assay": "Western blot, p70S6K protein levels in drug-resistant NSCLC cells", "conditions": "48 h", "experimental": "Cells were washed once with PBS and frozen in RIPA lysis buffer containing protease and phosphatase inhibitors (Sigma-Aldrich) for 30 min. After sonication and centrifugation, the total protein concentration was determined by protein assay using Bio-Rad concentrated dye reagent (Bio-Rad). Equal amounts of protein ([…]) from each sample were separated by SDS-PAGE and electrotransferred to nitrocellulose membranes (GE Healthcare). Detection was performed on the membrane with a 1:1000 dilution of specific primary antibody followed by incubation with a 1:2000 dilution of the HRP conjugated secondary antibody. Finally, immunoreactivity is detected with a chemiluminescent substrate (Clarity Western ECL substrate; Bio-Rad). EGFR (#4267S), MET (#8198S), p-Akt (#9271L), akt (#9272S), p-mTOR (#5536S), mTOR (#2983S), p-p70S6K (#9234S), p70S6K (#2708S), p-S6RP (#4857S), S6RP (#2217S), p-4E-BP1 (#9455S) antibodies. 4E-BP1 (#9644S), p53 (#2527S), p21 waf1/Cip1 (#2947S), survivin (#2808S), cyclin B1 (#12231S), cyclin D3 (#2936S) and GAPDH (#2118S) were purchased from Cell Signaling Technology. Aurora A (#ab13824) and PLK1 (#ab189139) antibodies were from Abcam."}}, "data": [{"compound": "CC(=O)Oc1c(OC(C)=O)c2c(C)coc2c2ccc3c(c12)CCCC3(C)C", "note": "[ATA, acetyltanshinone IIA]", "values": [{"measurement": "inhibition of colony formation", "setting": "H1975 cells [1]", "result": "almost completely inhibited"}, {"measurement": "effect on cell invasion", "setting": "A549 cells; 0.5 μM", "result": "significant inhibitory effect"}, {"measurement": "reduction of invasion ability", "setting": "A549 cells; 1 μM", "result": 88, "unit": "%"}, {"measurement": "IC50 ratio of Erlotinib/ATA", "setting": "H1975 cells [2]", "result": 6}, {"measurement": "IC50", "setting": "H1975 cells [2]; MTT, 72 h", "result": "1760 ± 20", "unit": "nM"}, {"measurement": "decrease of EGFR protein levels", "setting": "EGFR; A549 cells, 2 μM, 72 or 96 h", "result": "≤ 90", "unit": "%"}, {"measurement": "reduction of EGFR protein levels", "setting": "EGFR; H358, H1975 and H1650 cells, 1 or 2 μM, 48 h", "result": "60-70%"}, {"measurement": "proportion of cells in the G1 phase", "setting": "A549 and H1650 cells", "result": "increased"}, {"measurement": "proportion of cells in the S phase", "setting": "A549 and H1650 cells", "result": "decreased"}, {"measurement": "levels of p70S6K protein and its phosphorylated forms", "setting": "p70S6K; A549, H358, H1975, H1650 cells, 1 or 2 μM", "result": "greatly reduced"}, {"measurement": "levels of p70S6K", "setting": "p70S6K; A549 and H1650 cells, 2 μM", "result": "significantly decreased"}]}]}
